Measured values published in PubChem BioAssay (NCI).
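Five concentrations, 48 hours, 96-well plates. The concentration for 50% growth inhibition is given as GI50. At the TGI there is no net growth.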 Where a SMILES comes first, the peptide text is derived from it. [ ]: non-standard residue; d: D form. ξ: configuration not given here. Pentanoyl(2-O,4-OH,5-Cl) = O=C(O)C(O)CC(O)CCl; Ile(3ξ) = CCC(C)[C@H](N)C(=O)O; NMeV = CN[C@H](C(=O)O)C(C)C; NMeA = CN[C@@H](C)C(=O)O; βAla = NCCC(=O)O

Key:
Test in all cases: NCI tumour cell line growth inhibition, 48 h
SR leukemia = tested on: SR leukemia
HOP-62 NSCLC = tested on: HOP-62 NSCLC
ACHN renal = tested on: ACHN renal
SNB-19 CNS = tested on: SNB-19 CNS
HCT-116 colon = tested on: HCT-116 colon
HCC-2998 colon = tested on: HCC-2998 colon
NCI-H522 lung = tested on: NCI-H522 lung
HCT-15 colon = tested on: HCT-15 colon
SF-539 CNS = tested on: SF-539 CNS
HOP-92 NSCLC = tested on: HOP-92 NSCLC

Row | SMILES | TGI (SR leukemia) [µM] | TGI (HOP-62 NSCLC) [µM] | TGI (ACHN renal) [µM] | TGI (SNB-19 CNS) [µM] | TGI (HCT-116 colon) [µM] | TGI (HCC-2998 colon) [µM] | TGI (NCI-H522 lung) [µM] | TGI (HCT-15 colon) [µM] | TGI (SF-539 CNS) [µM] | TGI (HOP-92 NSCLC) [µM] | GI50 (ACHN renal) [µM] | GI50 (SNB-19 CNS) [µM] | GI50 (HCT-116 colon) [µM] | GI50 (SF-539 CNS) [µM] | GI50 (HCC-2998 colon) [µM] | GI50 (HOP-92 NSCLC) [µM] | GI50 (NCI-H522 lung) [µM] | GI50 (HCT-15 colon) [µM] | GI50 (HOP-62 NSCLC) [µM] | GI50 (SR leukemia) [µM]
1 | CCN(CC)C(=O)c1cccc2c(OC)ccc(OC)c12 | > 100 | > 100 | > 100 | > 100 | > 100 | > 100 | > 100 | > 100 | – | – | – | – | – | – | – | – | – | – | – | –
2 | CS(=O)(=O)N(CCC#N)c1ccc(/C=C2\N=C(c3ccccc3Cl)OC2=O)cc1 | – | > 100 | > 100 | > 100 | > 100 | > 100 | > 100 | > 100 | > 100 | – | – | – | – | – | – | – | – | – | – | –
3 | CC1COS(=O)N1c1ccccc1 (stereo not given) | – | > 100 | > 100 | – | – | > 100 | > 100 | > 100 | – | > 100 | – | – | – | – | – | – | – | – | – | –
4 | O=C(c1ccccc1)c1nc2ccc(Cl)cc2cc1C(Br)Br | 21.2 | 1.94 | 0.662 | 1.42 | 0.34 | 2.88 | 3.68 | 0.879 | 0.537 | – | – | – | – | – | – | – | – | – | – | –
5 | CCC(C)[C@@H]1NC(=O)[C@@H]2CCCN2C(=O)C(CC(O)CCl)OC(=O)CCNC(=O)[C@H](C)N(C)C(=O)[C@H](C(C)C)N(C)C1=O (stereo not given in full) (cyclo([Ile(3ξ)][NMeV][NMeA][βAla][Pentanoyl(2-O,4-OH,5-Cl)]P)) | > 100 | > 100 | > 100 | > 100 | > 100 | – | > 100 | > 100 | > 100 | 8.13 | – | – | – | – | – | – | – | – | – | –
6 | Clc1ccc2c(NC3CCC(NC4CCCCC4)CC3)ccnc2c1 (stereo not given) | – | – | 17.1 | 89.8 | 13.9 | 8.13 | 14 | 12.8 | 4.13 | 9.74 | 4.85 | 21.3 | 3.26 | 2.03 | 2.49 | 1.2 | 3.37 | 3.52 | – | –
7 | CC(C)CC(NC(=O)C(O)C(N)Cc1ccccc1)C(=O)O (stereo not given) | > 100 | > 100 | > 100 | > 100 | > 100 | > 100 | – | > 100 | > 100 | > 100 | – | – | – | – | – | – | – | – | – | –
8 | CC(C)(Sc1cc(C(C)(C)C)c(O)c(C(C)(C)C)c1)Sc1cc(C(C)(C)C)c(O)c(C(C)(C)C)c1 | – | > 100 | > 100 | > 100 | > 100 | – | > 100 | > 100 | > 100 | – | – | – | – | – | – | – | – | – | – | –
9 | CN1CCN(c2cc(F)c(NC3=C(Cl)C(=O)c4ncccc4C3=O)c(F)c2)CC1 | – | 5.18 | 2.9 | 3.9 | 2.26 | 3.55 | 2.26 | 3.06 | 2.91 | 3.22 | 1.53 | 1.94 | 0.646 | 1.52 | 1.84 | 1.69 | 0.559 | 1.53 | 2.06 | –
10 | CCOP(=O)(OCC)C(C(=O)OC)C(=O)C(=O)Nc1cccc([N+](=O)[O-])c1 (stereo not given) | > 100 | > 100 | > 100 | > 100 | > 100 | > 100 | > 100 | > 100 | > 100 | – | – | – | – | – | – | – | – | – | – | –
11 | COc1cccc(C2CC(C)(O)Oc3cc4c(cc32)OCO4)c1 (stereo not given) | 23.8 | 74.4 | > 100 | > 100 | 28.5 | > 100 | 30.6 | 83.3 | – | 93.3 | – | – | – | – | – | – | – | – | – | –
12 | C[C@]12CC[C@H]3[C@@H](CCC4=CC(=O)CC[C@@]43C)[C@]1(O)CC[C@]2(O)C(=O)CO | > 100 | > 100 | > 100 | > 100 | > 100 | > 100 | > 100 | > 100 | > 100 | – | – | – | – | – | – | – | – | – | – | –
13 | O=NN(CC1(O)OCC(O)C(O)C1O)C(Cc1c[nH]c2ccccc12)C(=O)O (stereo not given) | – | > 100 | > 100 | – | > 100 | > 100 | > 100 | – | > 100 | > 100 | – | – | – | – | – | – | – | – | – | –
14 | CN(C)C(=C1C(Br)=C(Br)C(Br)=C1Br)N(C)C | – | > 100 | > 100 | – | – | > 100 | 39.9 | > 100 | > 100 | > 100 | – | – | – | – | – | – | – | – | – | –
15 | O=C1C2C3SC(c4cc5ccccc5cc43)C2C(=O)N1c1ccccc1 (stereo not given) | – | – | > 100 | > 100 | > 100 | > 100 | > 100 | > 100 | > 100 | > 100 | – | – | – | – | – | – | – | – | – | –
16 | Oc1ccc(CCNc2nc3ccccc3c3[nH]c4ccccc4c23)cc1O | 5.74 | 13.5 | 5.76 | 11.2 | 2.7 | 14.1 | – | 3.95 | 3.6 | 2.95 | 2.14 | 3.06 | 1.4 | 2.02 | 3.54 | 1.31 | – | 1.9 | 3.78 | 1.92
17 | O=C(O)c1ccccc1NS(=O)(=O)c1ccc(Cl)cc1 | – | > 100 | > 100 | > 100 | > 100 | > 100 | > 100 | > 100 | > 100 | 81.5 | – | – | – | – | – | – | – | – | – | –
18 | CN(c1ccccc1)c1nc(=[N+](C)C)ss1 | – | > 100 | > 100 | > 100 | > 100 | > 100 | > 100 | > 100 | > 100 | > 100 | – | – | – | – | – | – | – | – | – | –
19 | O=C(c1ccccc1)[C@H]1Nc2ccc(Cl)cc2[C@H]2c3ccccc3O[C@H]21 | 66.6 | 32.5 | 28.7 | 29.3 | 34.3 | 31.5 | 33.8 | 28.4 | 28.7 | – | – | – | – | – | – | – | – | – | – | –
20 | COCCn1c(Nc2ccc(C(=O)NO)cc2)nc2ccccc21 | > 100 | 55.1 | 12.9 | 30 | 6.54 | 12.6 | 13.6 | 31.5 | 25.1 | – | 2.85 | 10.7 | 2.11 | 4.56 | 3.32 | – | 2.28 | 9.14 | 4.58 | 1.69
21 | O=c1c2ccccc2c(=O)n2n1-c1cccc(c1)CSSCc1cccc-2c1 | > 100 | > 100 | > 100 | > 100 | > 100 | > 100 | > 100 | > 100 | > 100 | – | > 100 | > 100 | > 100 | > 100 | > 100 | – | > 100 | > 100 | > 100 | > 100
